Drawing on PubChem BioAssay (NCI), this text covers TGI for seven compounds.

Each structure is given as a SMILES string.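 A five-concentration, 48-hour dose response in 96-well plates underlies each endpoint, interpolated linearly between surrounding concentrations. Definition used: TGI = concentration required for complete inhibition of growth.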

What all share (experiment): inhibition of tumour cell growth, NCI panel, 48 h
The test system of assay [1] is CAKI-1 renal.
Assay [2] relates to EKVX NSCLC.
In assay [3] the test system is HCC-2998 colon.
Assay [4] has as its system HCT-15 colon.
For assay [5], the system named is HOP-92 NSCLC.
Assay [6] deals with HS 578T breast.
Assay [7] has as its system HT29 colon.
Assay [8] has as its system M14 melanoma.
Assay [9] has as its system MALME-3M melanoma.
In assay [10] the test system is NCI-H226 lung.
Assay [11] has as its system NCI-H23 lung.
The subject of assay [12] is NCI/ADR-RES ovarian.
Assay [13] concerns OVCAR-3 ovarian.
Assay [14] has as its system OVCAR-4 ovarian.
In assay [15] the test system is SF-268 CNS.
For assay [16], the system named is SF-539 CNS.
In assay [17] the test system is SK-MEL-28 melanoma.
In assay [18] the test system is SK-OV-3 ovarian.
In assay [19] the test system is SW-620 colon.
The test system of assay [20] is UACC-62 melanoma.

As to `CC(/C=C/C=C\C=C\C=C(/C)C(=O)NC(C)CO)=C\C(C)C(O)/C(C)=C/C(C)CCc1ccccc1` (stereo not given), the TGI in [1] is 54.1 µM; in [2], > 80.6 µM; in assay [3] it was 26.7 µM; in assay [4] it was 31.1 µM; in [5], 13.5 µM; in [6], 52.8 µM. For the same compound, the TGI in assay [7] was found to be 25.2 µM; in [8], 23 µM; in [9] it was 22.3 µM; in assay [10], 26.5 µM; in assay [11], 17 µM; in [12], 93 µM. The TGI in assay [13] is 20 µM; in assay [14], 37.4 µM; in assay [15] it was 28.4 µM; in assay [16], 27.1 µM; in assay [17], 25.9 µM; in assay [18] it was 64 µM. Besides, the figures for the TGI in assay [19] and in assay [20] were 28.4 µM and 25.6 µM, respectively.

As for `O=c1[nH]c(=S)n(-c2cccc3ccccc23)c(O)c1/C=C1\C=Nc2ccccc21`, the TGI was 8.65 µM in [1]; 5.38 µM in [2]; 3.5 µM in assay [3]; 3.45 µM in assay [4]; 4.85 µM in assay [5]; 58.8 µM in [6]. Also, the TGI is 5.03 µM in [7]; 3.77 µM in assay [8]; 5.8 µM in [9]; 5.8 µM in assay [10]; 3.48 µM in [11]; 10.5 µM in assay [12]. Also, the TGI in assay [13] is 12.6 µM; in assay [14] it was 7.42 µM; in assay [15], 11.4 µM; in assay [16], 5.38 µM; in [17], 6.06 µM; in [18], 14.5 µM. The TGI in assay [19] stood at 6.73 µM; in [20] it was 3.26 µM.

On to `CC(=O)N(CN1C(=O)CCC1C(=O)O)c1ccc(C)cc1` (stereo not given), for which the TGI in assay [1], in assay [2], in assay [3], in [4], in assay [5] and in assay [6] was > 100 µM each time. In addition, the TGI in [7], in [8], in [9], in assay [10], in assay [11] and in [12] was > 100 µM in each case. For the same compound, the TGI in assay [13], in assay [14], in assay [15], in [16], in [17] and in assay [18] was > 100 µM throughout. For the same compound, the TGI in [19] and in [20] was > 100 µM throughout.

In the case of `C/C(=N\N)C(CN1CCCCC1)C(c1ccccc1)c1c(O)c2ccccc2oc1=O` (stereo not given), the TGI in [1], in assay [2], in [3], in assay [4], in [5] and in assay [6] was > 100 µM throughout. The TGI in [7], in assay [8], in assay [9], in assay [10], in assay [11] and in assay [12] was > 100 µM each time. The TGI in [13], in [14], in assay [15], in assay [16], in assay [17] and in [18] was > 100 µM in each case. Further, the TGI in assay [19] and in assay [20] was > 100 µM throughout.

Consider `O=C1CCN=C(NC(=O)C(F)(F)F)N1CCc1c[nH]c2ccccc12`, for which the TGI in [1], in assay [2], in assay [3], in [4], in assay [5] and in [6] was > 100 µM in each case. In addition, the TGI in assay [7], in assay [8], in assay [9], in assay [10], in assay [11] and in [12] was > 100 µM each time. Further, the TGI in [13], in assay [14], in [15], in assay [16], in [17] and in assay [18] was > 100 µM in each case. Besides, the TGI in assay [19] and in assay [20] was > 100 µM in each case.

For `OC1C2CCC3C2CC(C(O)(c2ccccc2)c2ccccc2)C13` (stereo not given), the TGI in assay [1], in assay [2], in [3], in [4], in assay [5] and in assay [6] was > 100 µM each time. In addition, the TGI in assay [7] is > 100 µM; in assay [8], > 100 µM; in assay [9], 71.3 µM; in [10], 92.6 µM; in assay [11], > 100 µM; in [12], > 100 µM. Moreover, the TGI in [13] is 87.3 µM; in [14] it was > 100 µM; in assay [15], > 100 µM; in assay [16], > 100 µM; in [17], > 100 µM; in assay [18] it was > 100 µM. Also, the TGI in [19] and in assay [20] was > 100 µM each time.

As to `c1cc2c(cc1NC1=NCCO1)CCCC2`, the TGI is > 88.1 µM in [1]; 47 µM in assay [2]; 9.8 µM in assay [3]; 22.4 µM in assay [4]; 19.3 µM in assay [5]; 23 µM in assay [6]. Moreover, the TGI in [7] came to 7.28 µM; in [8] it was 12.2 µM; in assay [9] it was 21.9 µM; in assay [10] it was 11.4 µM; in [11] it was 16 µM; in assay [12] it was 8.84 µM. The TGI in [13] was determined as 16.8 µM; in assay [14], 71.2 µM; in assay [15], 25 µM; in assay [16], 6.25 µM; in [17], 27.2 µM; in [18], 27.1 µM. Moreover, the values for the TGI in assay [19] and in assay [20] were 47.3 µM and 16.5 µM, respectively.
